According to patent publication US7943296B2, “Methods of screening using a natriuretic peptide receptor” (Oregon Health & Science University, priority 2005, dated 2011):

Legend:
NPRA = assay: [35S]ATPγS incorporation into NPRA (receptor phosphorylation) in CFs; format: cell-based, rat; details: ANP 5 minutes, KT5823 1 μM or expressed fragment
Experimental: To identify receptor phosphorylation by PKG, ^[35S]ATPγS was employed as a substrate. [^35S] incorporation into NPRA was analyzed according to the method previously described (Joubert et al., Biochem. 40:11096-105, 2001). Briefly, the treated CFs were scraped into 100 μl ice-cold incubation buffer (25 mM HEPES, pH 7.4, 50 mM NaCl, 5 mM MgCl2, 0.2 μM okadaic acid, 1 mM Na3VO4, 10 mM NaH2PO4, 10 mM NaF, and protease inhibitors (complete mini-tablet, Roche) and lysed by repeated passage through a 22-gauge needle. Lysates were added to incubation buffer containing 1 μCi [^35S]ATPγS (specific activity >1000 Ci/mmol), final volume of 200 μl, incubated at 37° C. for 30 minutes. Proteins were analyzed by SDS-PAGE (7.5%) and subsequent autoradiography.

[1] = system: cardiac fibroblasts (CFs); assay: Vimentin localisation in CFs by immunofluorescence microscopy; format: cell-based, rat; details: fragment expressed
Experimental: NP's ability to inhibit growth factor-induced CF differentiation into myofibroblasts was determined as follows. CFs were transiently transfected with insertless pcDNA3 vector or pcDNA3 encoding sNRF^(806-900) (see Example 7). The transfected CFs were then treated for 48 hours with 10 ng/ml basic fibroblast growth factor (FGF; Sigma-Aldrich #F0291) in the presence or absence of 100 nM ANP. Alpha-smooth muscle actin (α-SMA) protein expression, the principal marker of CF differentiation, was assessed by Western blotting and immunofluorescence microscopy. Vimentin staining was used as a loading control because it is expressed equally in fibroblasts and transdifferentiated myofibroblasts.
For the immunofluorescence microscopy, slide wells were treated as described in Example 7 and incubated with anti-α-SMA and anti-vimentin antibody as well as phalloidin to stain for actin. Briefly, cells were rinsed twice with phosphate-buffered saline (PBS) and fixed with 3.7% formaldehyde in PBS for 10 minutes. After fixation, cells were rinsed with PBS and permeabilized with 0.3% Triton X-100 in PBS for 10 minutes and blocked for 1 hour in 1% horse serum, 0.2% bovine serum albumin in PBS. Cells were then incubated with primary α-SMA antibody (ABCAM ab7817) and primary vimentin antibody (ABCAM ab7783) diluted in blocking solution for 1 hour and washed three times with blocking solution for 5 minutes. […]

full-length NPRA = molecular target: T1, full-length NPRA (Homo sapiens, UniProt P16066); assay: Association of NPRA fragment with full-length NPRA; format: binding; details: in the presence or absence of activated PKG
T1 sequence (P16066 33-1061): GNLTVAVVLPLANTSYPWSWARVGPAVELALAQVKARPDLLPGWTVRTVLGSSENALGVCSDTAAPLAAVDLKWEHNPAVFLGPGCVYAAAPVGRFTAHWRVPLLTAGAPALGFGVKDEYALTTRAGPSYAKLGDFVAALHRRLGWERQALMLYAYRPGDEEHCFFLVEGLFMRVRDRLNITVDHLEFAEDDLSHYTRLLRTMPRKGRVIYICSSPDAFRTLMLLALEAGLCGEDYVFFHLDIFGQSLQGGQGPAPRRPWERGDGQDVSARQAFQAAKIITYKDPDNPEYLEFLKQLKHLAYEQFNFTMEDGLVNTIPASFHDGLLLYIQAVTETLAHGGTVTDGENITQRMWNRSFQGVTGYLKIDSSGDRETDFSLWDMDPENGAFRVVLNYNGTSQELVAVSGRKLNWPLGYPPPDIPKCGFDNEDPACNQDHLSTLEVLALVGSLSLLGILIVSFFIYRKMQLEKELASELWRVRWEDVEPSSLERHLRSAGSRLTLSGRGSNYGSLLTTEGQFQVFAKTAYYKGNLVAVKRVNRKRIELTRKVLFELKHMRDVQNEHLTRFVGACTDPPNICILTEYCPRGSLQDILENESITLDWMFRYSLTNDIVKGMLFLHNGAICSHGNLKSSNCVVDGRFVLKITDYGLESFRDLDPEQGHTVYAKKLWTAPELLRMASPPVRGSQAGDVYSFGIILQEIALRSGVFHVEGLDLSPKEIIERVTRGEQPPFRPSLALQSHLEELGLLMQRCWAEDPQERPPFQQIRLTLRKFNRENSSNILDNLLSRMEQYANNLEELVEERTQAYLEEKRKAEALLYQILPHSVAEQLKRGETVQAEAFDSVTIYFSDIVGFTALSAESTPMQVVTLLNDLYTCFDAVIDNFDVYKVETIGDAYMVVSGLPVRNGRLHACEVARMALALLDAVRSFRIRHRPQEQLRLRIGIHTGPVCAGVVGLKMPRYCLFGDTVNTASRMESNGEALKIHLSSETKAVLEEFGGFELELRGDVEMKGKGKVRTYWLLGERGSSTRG

## sNRF^(806-900): intracellular NPRA fragment, residues 806-900, excludes the cyclase-containing domain; shortest fragment observed to associate with PKG
NPRA
  ANP-induced NPRA phosphorylation: reduced ANP-induced NPRA phosphorylation to control levels
[1]
  ANP-associated nuclear to cytosolic translocation of vimentin: inhibited
full-length NPRA
  association with full-length NPRA: failed to associate with full-length NPRA
